According to article PMC3731216, “Origin and Functional Diversification of an Amphibian Defense Peptide Arsenal” (PLoS Genetics, 2013):
In brackets after ≈: the same amount, converted by molar mass. Where a SMILES comes first, the peptide text is derived from it.

Tests used:
[1] = tested on: Escherichia coli (ATCC 25922); experiment: MIC assay in liquid medium (twofold dilutions) against E. coli; assay type: cell-based; details: lowest concentration in twofold dilutions with no growth; 5×10^5 CFU/ml, Müller-Hinton broth, 37°C, 18 hours, read by eye; duplicate or triplicate, min–max if variable
Procedure: (§1) Seventeen predicted and recovered peptides were de novo synthesized using solid-phase technology by CASLO Laboratory ApS (Lyngby, Denmark) and delivered as HPLC-purified (>95%) trifluoracetate (TFA) salts. The peptide salts were stored as 5.12 mM stock solutions in 0.01% (V/V) acetic acid/0.2% (m/V) BSA. Peptides were tested against Escherichia coli (ATCC 25922) and Pseudomonas aeruginosa (ATCC 15692), Staphylococcus aureus (ATCC 25923), Micrococcus luteus, Saccharomyces cerevisiae, a protozoan parasite (Trypanosoma brucei brucei), mouse (Mus musculus) red blood cells and mouse spleen tissue cultures (containing 50–60% B-cells, ∼25–30% T-cells, and 5% myeloid cells). All assays were performed in duplicate or triplicate.
(§2) Activity against the bacteria and fungus was measured by assessing the lowest peptide concentration in a series of twofold dilutions at which no growth was detected (known as the minimum inhibitory concentration, MIC). Bacterial and yeast cultures (5×10^5 colony forming units/ml) were prepared in Müller-Hinton (MH) broth and Luria-Bertani (LB) broth respectively and transferred to serial dilutions of peptides ranging from 512 or 256 µM down to 1 or 0.5 µM in 96-well polypropylene plates. After incubation at 37°C (bacteria) or 30°C (S. cerevisiae) for 18 hours, growth of the cultures was checked by eye. In addition to MIC, we determined minimum microbicidal concentrations (MMC) by inoculating samples of the MIC assays on agar plates lacking peptides and checking for overnight growth. In all cases, MIC and MMC were identical.

[2] = tested on: Pseudomonas aeruginosa (ATCC 15692); experiment: MIC assay in liquid medium (twofold dilutions) against P. aeruginosa; assay type: cell-based; details: lowest concentration in twofold dilutions with no growth; 5×10^5 CFU/ml, Müller-Hinton broth, 37°C, 18 hours, read by eye; duplicate or triplicate, min–max if variable
Procedure: as §1, §2

[3] = tested on: Staphylococcus aureus (ATCC 25923); experiment: MIC assay in liquid medium (twofold dilutions) against S. aureus; assay type: cell-based; details: lowest concentration in twofold dilutions with no growth; 5×10^5 CFU/ml, Müller-Hinton broth, 37°C, 18 hours, read by eye; duplicate or triplicate, min–max if variable
Procedure: as §1, §2

[4] = tested on: Micrococcus luteus; experiment: MIC assay in liquid medium (twofold dilutions) against M. luteus; assay type: cell-based; details: lowest concentration in twofold dilutions with no growth; 5×10^5 CFU/ml, Müller-Hinton broth, 37°C, 18 hours, read by eye; duplicate or triplicate, min–max if variable
Procedure: as §1, §2

[5] = tested on: Saccharomyces cerevisiae; experiment: MIC assay in liquid medium (twofold dilutions) against S. cerevisiae; assay type: cell-based; details: lowest concentration in twofold dilutions with no growth; 5×10^5 CFU/ml, Luria-Bertani broth, 30°C, 18 hours, read by eye; duplicate or triplicate, min–max if variable
Procedure: as §1, §2

[6] = tested on: mouse red blood cells; experiment: Hemolysis of mouse red blood cells (HC50); assay type: cell-based; details: lowest concentration causing at least 50% hemolysis; mouse blood diluted 1/100 in RPMI, 37°C, 30 minutes, OD 550 nm; 100% = 1% Tween-20
Procedure: as §1
Activity against mouse red blood cells was examined by assessing the lowest peptide concentration in a series of twofold dilutions causing at least 50% hemolysis (HC50). Briefly, heparinized blood was obtained by cardiac puncture of mice euthanized via CO2. The blood was diluted 1/100 in RPMI and added to polypropylene 96-well plates containing the serial peptide dilutions to obtain total volumes of 100 µl. The plates were incubated at 37°C in a humidified atmosphere for 30 minutes and centrifuged at 1400 rpm for 2 minutes to pellet intact red blood cells allowing visual observation of hemolysis. Supernatants were subsequently transferred to 96-well flat-bottom plates to allow spectrophotometry using an ELISA reader (OD measured at 550 nm). The percentage of hemolyis for each peptide concentration was calculated as 100×(ODobs−OD0%)/(OD100%−OD0%), where ODobs is the OD measured for the peptide concentration, OD0% is the average OD in the absence of peptides (0% hemolysis), and OD100% is the average OD in the presence of 1% Tween-20 (100% hemolysis).

[7] = tested on: T-lymphocytes (naive C57Black/6 splenocytes); experiment: Inhibition of Concanavalin A-induced T-cell proliferation in spleen cell cultures; assay type: cell-based, Mus musculus; details: lowest concentration causing at least 50% inhibition of Concanavalin A-induced T-cell proliferation; 2×10^5 splenocytes, 24 h + 18 h [3H]thymidine, 37°C; min–max if variable
Procedure: as §1
Activity against T-lymphocytes was assessed as the lowest peptide concentration in a series of twofold dilutions causing at least 50% inhibition of Concanavalin A-induced T-cell proliferation (IC50). Solutions containin 2×10^5 naive C57Black/6 splenocytes in the presence of 2.5 µg Concanavalin A were added to polypropylene 96-well plates containing the serial peptide dilutions to obtain total volumes of 100 µl. After incubation for 24 hours at 37°C in a humidified atmosphere, the cells were pulsed with [^3H]thymidine and incubated for an additional 18 hours. The amount of [^3H]thymidine incorporation was assessed by a β-counter as a measure of cell proliferation and the percentage of proliferation inhibition for each peptide concentration was calculated as 100×(1−(Tobs/T100%)), where Tobs is the [^3H]thymidine level measured for the peptide concentration, and T100% is the [^3H]thymidine level measured for Concanavalin-A-induced cell proliferation in the absence of peptide (representing 100% proliferation).

Structure (SMILES)	MIC E. coli [1]	MIC P. aeruginosa [2]	MIC S. aureus [3]	MIC M. luteus [4]	MIC S. cerevisiae [5]	HC50 Erythrocytes [6]	IC50 [7]
CC[C@H](C)[C@H](NC(=O)[C@H](CC(C)C)NC(=O)[C@H](CCCCN)NC(=O)[C@H](CO)NC(=O)[C@H](C)NC(=O)CNC(=O)[C@H](CCCCN)NC(=O)[C@H](CC(C)C)NC(=O)[C@H](C)NC(=O)[C@H](CCSC)NC(=O)[C@H](CCCCN)NC(=O)[C@H](C)NC(=O)[C@H](Cc1ccccc1)NC(=O)[C@@H](NC(=O)CNC(=O)[C@H](Cc1ccccc1)NC(=O)[C@H](CC(C)C)NC(=O)[C@@H](N)CO)[C@@H](C)O)C(=O)N1CCC[C@H]1C(=O)N[C@@H](Cc1c[nH]cn1)C(=O)N[C@@H](CC(C)C)C(=O)N[C@@H](CC(C)C)C(=O)N1CCC[C@H]1C(=O)N[C@@H](CO)C(=O)N[C@@H](CCCNC(=N)N)C(=O)N[C@@H](CCC(N)=O)C(=O)N[C@@H](CCC(N)=O)C(=O)O [CPF-St4] (H-SLFGTFAKMALKGASKLIPHLLPSRQQ-OH)	2 to 4 µM	4 to 8 µM	1 µM	0,5 µM	16 µM	64 µM	2 µM
CC[C@H](C)[C@H](NC(=O)[C@H](CC(C)C)NC(=O)[C@H](CCCCN)NC(=O)[C@H](CO)NC(=O)[C@H](C)NC(=O)CNC(=O)[C@H](CCCCN)NC(=O)[C@H](CC(C)C)NC(=O)[C@H](C)NC(=O)[C@H](C)NC(=O)[C@H](CCCCN)NC(=O)[C@H](C)NC(=O)[C@H](CC(C)C)NC(=O)[C@H](CC(C)C)NC(=O)CNC(=O)[C@H](Cc1ccccc1)NC(=O)[C@@H](NC(=O)CN)C(C)C)C(=O)N1CCC[C@H]1C(=O)N[C@@H](Cc1c[nH]cn1)C(=O)N[C@@H](CC(C)C)C(=O)N[C@@H](CC(C)C)C(=O)N1CCC[C@H]1C(=O)N[C@@H](CO)C(=O)N[C@@H](CCCNC(=N)N)C(=O)N[C@@H](CCC(N)=O)C(=O)N[C@@H](CCC(N)=O)C(=O)O [CPF-St5] (H-GVFGLLAKAALKGASKLIPHLLPSRQQ-OH)	1 µM (≈ 2.81 µg/mL)	4 to 8 µM	1 µM (≈ 2.81 µg/mL)	0,5 µM	16 µM (≈ 45 µg/mL)	64 µM	8 µM
CC[C@H](C)[C@H](NC(=O)[C@@H](N)Cc1ccccc1)C(=O)NCC(=O)N[C@@H](C)C(=O)N[C@@H](CC(C)C)C(=O)N[C@@H](CC(C)C)C(=O)N[C@@H](CCCNC(=N)N)C(=O)N1CCC[C@H]1C(=O)N[C@@H](C)C(=O)N[C@@H](CC(C)C)C(=O)N[C@@H](CCCCN)C(=O)N[C@@H](CC(C)C)C(=O)N[C@@H](CC(C)C)C(=O)N[C@@H](C)C(=O)NCC(=O)N[C@@H](CCCCN)C(=O)O [PFQa-St2] (H-FIGALLRPALKLLAGK-OH)	32 µM (≈ 53.8 µg/mL)	256 µM (≈ 430 µg/mL)	16 µM (≈ 26.9 µg/mL)	4 µM (≈ 6.72 µg/mL)	128 µM (≈ 215 µg/mL)	256 µM	128 µM
CC[C@H](C)[C@H](NC(=O)[C@H](C)NC(=O)[C@H](CCC(=O)O)NC(=O)[C@H](CC(C)C)NC(=O)CNC(=O)CNC(=O)[C@H](CCCCN)NC(=O)[C@H](C)NC(=O)[C@H](Cc1ccccc1)NC(=O)[C@H](CCCCN)NC(=O)[C@H](CCCCN)NC(=O)[C@H](CC(C)C)NC(=O)CNC(=O)CNC(=O)[C@H](CC(C)C)NC(=O)[C@@H](NC(=O)[C@@H](NC(=O)[C@H](CO)NC(=O)[C@H](Cc1c[nH]c2ccccc12)NC(=O)[C@@H](NC(=O)CN)C(C)C)[C@@H](C)O)C(C)C)C(=O)N[C@H](C(=O)N[C@@H](CC(N)=O)C(=O)N1CCC[C@H]1C(=O)N[C@@H](CCCCN)C(=O)O)C(C)C [XPF-St1] (H-GVWSTVLGGLKKFAKGGLEAIVNPK-OH)	4 µM (≈ 10.3 µg/mL)	32 µM (≈ 82.2 µg/mL)	32 to 64 µM	0,5 µM	32 µM (≈ 82.2 µg/mL)	128 µM	16 µM
CC[C@H](C)[C@H](NC(=O)[C@H](CO)NC(=O)[C@H](CO)NC(=O)[C@H](C)NC(=O)[C@H](Cc1c[nH]c2ccccc12)NC(=O)CN)C(=O)NCC(=O)N[C@@H](CO)C(=O)N[C@H](C(=O)N[C@@H](CC(C)C)C(=O)NCC(=O)N[C@@H](CCCCN)C(=O)N[C@@H](Cc1ccccc1)C(=O)N[C@@H](C)C(=O)N[C@@H](CCCCN)C(=O)NCC(=O)NCC(=O)N[C@@H](C)C(=O)N[C@@H](CCC(N)=O)C(=O)N[C@@H](C)C(=O)N[C@@H](Cc1ccccc1)C(=O)N[C@@H](CC(C)C)C(=O)N[C@@H](CCC(N)=O)C(=O)N1CCC[C@H]1C(=O)N[C@@H](CCCCN)C(=O)O)[C@@H](C)CC [XPF-St4] (H-GWASSIGSILGKFAKGGAQAFLQPK-OH)	32 µM (≈ 80.6 µg/mL)	128 µM (≈ 323 µg/mL)	>256 µM	0,5 µM	64 µM (≈ 161 µg/mL)	256 µM	64 µM
CC[C@H](C)[C@H](NC(=O)[C@@H]1CCCN1C(=O)[C@H](CCC(N)=O)NC(=O)[C@@H](NC(=O)[C@H](CC(C)C)NC(=O)[C@H](CCCCN)NC(=O)[C@@H]1CCCN1C(=O)CNC(=O)[C@H](CC(C)C)NC(=O)[C@H](CCC(N)=O)NC(=O)[C@H](CCSC)NC(=O)[C@H](C)NC(=O)[C@H](CCCCN)NC(=O)[C@H](CCCNC(=N)N)NC(=O)[C@H](CC(C)C)NC(=O)[C@@H](NC(=O)[C@H](CCCCN)NC(=O)CNC(=O)[C@H](Cc1ccccc1)NC(=O)[C@@H](NC(=O)[C@@H]1CCCN1C(=O)[C@H](CC(C)C)NC(=O)[C@H](Cc1c[nH]c2ccccc12)NC(=O)CN)[C@@H](C)O)[C@@H](C)CC)[C@@H](C)CC)C(=O)O [XPF-St5] (H-GWLPTFGKILRKAMQLGPKLIQPI-OH)	1 to 2 µM	8 to 16 µM	16 µM (≈ 43.3 µg/mL)	1 µM (≈ 2.71 µg/mL)	32 µM (≈ 86.6 µg/mL)	128 µM	8 to 16 µM
CC[C@H](C)[C@H](NC(=O)[C@H](C)NC(=O)[C@H](CC(=O)O)NC(=O)[C@H](CC(C)C)NC(=O)CNC(=O)CNC(=O)[C@H](CCCCN)NC(=O)[C@H](C)NC(=O)[C@H](Cc1ccccc1)NC(=O)[C@H](CCCCN)NC(=O)[C@H](CCCCN)NC(=O)[C@H](CC(C)C)NC(=O)CNC(=O)CNC(=O)[C@H](CC(C)C)NC(=O)[C@@H](NC(=O)[C@@H](NC(=O)[C@H](CO)NC(=O)[C@H](Cc1c[nH]c2ccccc12)NC(=O)[C@@H](NC(=O)CN)C(C)C)[C@@H](C)O)[C@@H](C)CC)C(=O)N[C@H](C(=O)N[C@@H](CC(N)=O)C(=O)N1CCC[C@H]1C(=O)N[C@@H](CCCCN)C(=O)O)C(C)C [XPF-St6] (H-GVWSTILGGLKKFAKGGLDAIVNPK-OH)	2 to 4 µM	16 µM (≈ 41.1 µg/mL)	8 to 16 µM	0,5 µM	8 µM (≈ 20.6 µg/mL)	64 µM	8 µM
